Laboratory results reported in patent US20160295864A1 (priority 2014, published 2016).

Key:
[1] = system: Pyricularia oryzae (Magnaporthe grisea); assay: microbe, parasite or virus in culture; format: cell-based; conditions: read-out: Magnaporthe grisea inhibition
[2] = system: Botrytis cinerea AARF-033; assay: Antifungal activity test against rice Botrytis cinerea (96 well microplate, conidia in glucose broth); format: cell-based; conditions: AARF033, 96 h, conidia 1×10^4 conidia/ml, stationary culturing for 4 days at 25° C.
From the text: Test specimens (compound (4a-2) and compound (4b-2)), (compound (4a-3) and compound (4b-3)), and reference compounds i.e. iprodione and Captan, were each independently dissolved in dimethyl sulfoxide (DMSO) and adjusted to a concentration of 10,000 ppm. The test solution was dispensed 2 μ/ml in a flat-bottomed 96 well microplate, and then, conidia of rice Botrytis cinerea (Botrytis cinerea AARF-033) cultured on glucose agar medium, suspended in glucose broth and adjusted to 1×10^4 conidia/ml, were dispensed 198 μ/mL, followed by stirring by a micromixer. At that time, the concentrations of the test specimen and the reference compound, were 100 ppm. Thereafter, the antimicrobial activities were evaluated by stationary culturing for 4 days at 25° C.

CCCCNC(=O)n1c(NC(=O)OC)nc2ccccc21 [Benomyl, benomyl]
inhibition at 100 ppm [1]: ≥ 95%

O=C1C2CC=CCC2C(=O)N1SC(Cl)(Cl)Cl (stereo not shown) [Captan]
inhibition at 100 ppm [2]: ≥ 95%

CO/N=C(/C1=NOCCO1)c1ccccc1Oc1ncnc(Oc2ccccc2Cl)c1F [Fluoxastrobin, fluoxastrobin]
inhibition at 100 ppm [1]: ≥ 95%

CC(C)NC(=O)N1CC(=O)N(c2cc(Cl)cc(Cl)c2)C1=O [Iprodione, iprodione]
inhibition at 100 ppm [2]: ≥ 95%
